# Measurements published in ChEMBL document CHEMBL1201862, “PubChem BioAssay data set” (2004).
#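 Protocol summary: plate cells (96-well), add compound at 5 concentrations, incubate 48 h, interpolate endpoints linearly. The concentration for 50% growth inhibition is given as GI50.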 Active and inactive are the calls of the source. Cut-off read from the data, not from the text of the source: active = GI50 up to about 1.1 µM and inactive = higher.
# Assays:
# Experiment in all cases: NCI tumour cell line growth inhibition, 48 h
# SK-OV-3 = test system: SK-OV-3
# HCT-116 = test system: HCT-116
# MCF7 = test system: MCF7
# U-251 = test system: U-251
# HT-29 = test system: HT-29
# 786-0 = test system: 786-0
# SF-268 = test system: SF-268
# NCI-H226 = test system: NCI-H226
# CCRF-CEM = test system: CCRF-CEM
# HL-60 = test system: HL-60
# A498 = test system: A498
# RPMI-8226 = test system: RPMI-8226
# CAKI-1 = test system: CAKI-1
# HCT-15 = test system: HCT-15
# TK-10 = test system: TK-10
# SNB-19 = test system: SNB-19
# NCI-H460 = test system: NCI-H460
# OVCAR-4 = test system: OVCAR-4
# OVCAR-3 = test system: OVCAR-3
# HOP-62 = test system: HOP-62
# MDA-MB-231 = test system: MDA-MB-231
# OVCAR-8 = test system: OVCAR-8
# SF-295 = test system: SF-295
# BT-549 = test system: BT-549
# HOP-92 = test system: HOP-92
# SF-539 = test system: SF-539
# UACC-257 = test system: UACC-257
# SN12C = test system: SN12C
# NCI/ADR-RES = test system: NCI/ADR-RES
# MDA-MB-435 = test system: MDA-MB-435
# K562 = test system: K562
# UACC-62 = test system: UACC-62
# OVCAR-5 = test system: OVCAR-5
# KM12 = test system: KM12
# SW-620 = test system: SW-620
# MOLT-4 = test system: MOLT-4
# DU-145 = test system: DU-145
# SK-MEL-2 = test system: SK-MEL-2
# Hs-578T = test system: Hs-578T
# IGROV-1 = test system: IGROV-1
# SK-MEL-28 = test system: SK-MEL-28
# LOX IMVI = test system: LOX IMVI
# EKVX = test system: EKVX
# NCI-H23 = test system: NCI-H23
# A549 = test system: A549
# SK-MEL-5 = test system: SK-MEL-5
# PC-3 = test system: PC-3
# Malme-3M = test system: Malme-3M
# RXF 393 = test system: RXF 393
# COLO 205 = test system: COLO 205
# SNB-75 = test system: SNB-75
# SR = test system: SR
# T47D = test system: T47D
# ACHN = test system: ACHN
# M14 = test system: M14
# UO-31 = test system: UO-31
# HCC 2998 = test system: HCC 2998
# NCI-H522 = test system: NCI-H522
smiles,measurement,setting,value
O=C1c2ccccc2S(=O)(=O)c2c1cccc2[N+](=O)[O-],GI50,SK-OV-3,> 6.62 µM (inactive)
same,GI50,HCT-116,1.3 µM (inactive)
same,GI50,MCF7,1.25 µM (inactive)
same,GI50,U-251,2.65 µM (inactive)
same,GI50,HT-29,2.57 µM (inactive)
same,GI50,786-0,1.52 µM (inactive)
same,GI50,SF-268,3.05 µM (inactive)
same,GI50,NCI-H226,> 7.26 µM (inactive)
same,GI50,CCRF-CEM,1.51 µM (inactive)
same,GI50,HL-60,1.33 µM (inactive)
same,GI50,A498,4.66 µM (inactive)
same,GI50,RPMI-8226,1.63 µM (inactive)
same,GI50,CAKI-1,4.21 µM (inactive)
same,GI50,HCT-15,1350 nM
same,GI50,TK-10,5.69 µM (inactive)
same,GI50,SNB-19,> 10 µM (inactive)
same,GI50,NCI-H460,> 5.83 µM (inactive)
same,GI50,OVCAR-4,2.12 µM (inactive)
same,GI50,OVCAR-3,1.22 µM (inactive)
same,GI50,HOP-62,5.32 µM (inactive)
same,GI50,MDA-MB-231,2.29 µM (inactive)
same,GI50,OVCAR-8,2.1 µM (inactive)
same,GI50,SF-295,8.99 µM (inactive)
same,GI50,BT-549,3.45 µM (inactive)
same,GI50,HOP-92,4.49 µM (inactive)
same,GI50,SF-539,1.94 µM (inactive)
same,GI50,UACC-257,1.87 µM (inactive)
same,GI50,SN12C,2.2 µM (inactive)
same,GI50,NCI/ADR-RES,2.38 µM (inactive)
same,GI50,MDA-MB-435,1.59 µM (inactive)
same,GI50,K562,> 10 µM (inactive)
same,GI50,UACC-62,1.72 µM (inactive)
same,GI50,OVCAR-5,3.45 µM (inactive)
same,GI50,KM12,2.15 µM (inactive)
same,GI50,SW-620,1.61 µM (inactive)
same,GI50,MOLT-4,1.85 µM (inactive)
same,GI50,DU-145,4.79 µM (inactive)
same,GI50,SK-MEL-2,5.85 µM (inactive)
same,GI50,Hs-578T,4.25 µM (inactive)
same,GI50,IGROV-1,1.9 µM (inactive)
same,GI50,SK-MEL-28,2 µM (inactive)
same,GI50,LOX IMVI,2.14 µM (inactive)
same,GI50,EKVX,3.35 µM (inactive)
same,GI50,NCI-H23,3.5 µM (inactive)
same,GI50,A549,4.7 µM (inactive)
same,GI50,SK-MEL-5,643 nM (active)
same,GI50,PC-3,3.01 µM (inactive)
same,GI50,Malme-3M,1.46 µM (inactive)
same,GI50,RXF 393,2.9 µM (inactive)
same,GI50,COLO 205,1.16 µM (inactive)
same,GI50,SNB-75,3.42 µM (inactive)
same,GI50,SR,902 nM (active)
same,GI50,T47D,2.37 µM (inactive)
same,GI50,ACHN,2.44 µM (inactive)
same,GI50,M14,1.61 µM (inactive)
same,GI50,UO-31,2 µM (inactive)
same,GI50,HCC 2998,5.77 µM (inactive)
same,GI50,NCI-H522,1.18 µM (inactive)
